Consider one substance from patent publication US20230414556A1, “NANO-HEPATIC TARGETED EPIGALLOCATECHIN GALLATE IN DYSLIPIDEMIA” (priority 2022, published 2023).

Where two headings read alike, the source gives them in different places.

Data set [1] is described as follows: Plasma lipid profile in high-fat diet mice (nutritionally induced hypercholesterolemia model). It is filed as in vivo, C57BL/6 mice. Conditions: oral. How it is done: High fat diet male C57BL/6 mice aged 4-5 weeks and weighing 20-25 g were purchased from Taconic Biosciences, Inc. (Germantown, NY, USA). All animal studies were conducted at the animal facility of the Veteran Affairs Medical Center (VAMC) (Albany, NY, USA) in accordance with institutional guidelines for humane animal treatment and approved by the Institutional Animal Care & Use Committee (IACUC) at VAMC. Animals were maintained under specific pathogen-free conditions and housed under controlled conditions of temperature (20-24° C.) and humidity (60-70%) and 12 h light/dark cycle with ad libitum access to water and food. The mice were grouped into five arms (n=5). Administrated orally to the mice were water for vehicle control (VCtrl), Void nanoparticle (void NP), EGCG (30 mg/kg), Nano EGCG (NP-EGCG) and Nano-targeted EGCG (NPT-EGCG) at 30 mg/kg equivalent EGCG for 3 weeks. Blood was collected from retro-orbital after the 24 h, week 1, week 2 and week 3 treatment to measure the levels of plasma total cholesterol, LDL-C, HDL, free and cholesteryl esters. Animals were humanely sacrificed, and liver tissue was collected. The plasma contents of total cholesterol, LDL-C, HDL-C, free and cholesteryl esters were measured with the Cholesterol-HDL and LDL/VLDL assay kit according to the manufacturer's instructions (Abcam, Boston, MA, USA). Statistical analysis was performed using GraphPad Prism (San Diego, CA, USA) (Wilkinson, 1956). All data are presented as mean±standard deviation of the mean. The Mann-Whitney nonparametric test was used to determine differences in the groups. ***P<0.001, **P<0.01, *P<0.05 were considered as significant.

The conditions of data set [2]: cited from earlier work.
Data set [3] has as its target T1, Hydroxy-3-methyl-glutaryl-CoA reductase (HMGR) (Homo sapiens, UniProt P04035).
T1 sequence (P04035 426-888 limits assumed): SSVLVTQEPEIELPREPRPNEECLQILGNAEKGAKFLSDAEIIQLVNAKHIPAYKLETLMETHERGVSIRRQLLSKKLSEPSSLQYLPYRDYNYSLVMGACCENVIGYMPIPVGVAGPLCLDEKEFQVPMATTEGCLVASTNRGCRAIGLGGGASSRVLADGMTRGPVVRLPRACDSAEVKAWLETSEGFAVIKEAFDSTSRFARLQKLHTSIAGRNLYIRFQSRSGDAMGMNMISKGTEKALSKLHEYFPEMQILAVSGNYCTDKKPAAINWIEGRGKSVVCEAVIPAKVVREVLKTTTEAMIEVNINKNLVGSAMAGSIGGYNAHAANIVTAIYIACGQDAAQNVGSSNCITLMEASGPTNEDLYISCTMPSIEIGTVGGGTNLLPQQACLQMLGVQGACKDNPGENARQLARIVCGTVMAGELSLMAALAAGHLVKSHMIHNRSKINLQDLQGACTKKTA
The following applies: competitive binding to the cofactor site; cited from earlier work.

[4] abbreviates: 30 mg/kg, week 3, compared to vehicle control and void NP.

As to (−)-epigallocatechin gallate [EGCG], in data set [1] (30 mg/kg (equivalent) EGCG, week 3, compared to vehicle control and void NP), the “decrease of plasma total cholesterol” value came out at 28%. Also, in data set [1] (30 mg/kg, week 2 and week 3), the “plasma cholesteryl esters (in words)” value was “significant decrease”. Further, in data set [1] (30 mg/kg, week 3), the “decrease in plasma LDL-C” value is listed as 3% and the “increase in plasma HDL-C” value was determined as 10%. Further, in data set [1] (setting [4]), the “levels of free cholesterol in plasma (in words)” value is “significant decrease”, the “reduction of plasma cholesteryl esters” value turned out to be 30% and the “reduction of plasma free cholesterol” value is 11%. The “stability of EGCG” value in data set [2] (acidic solutions (pH<4)) is recorded as “very stable”. Also, in data set [2] (neutral and alkaline solutions), the “stability of EGCG” value was “extremely unstable and degraded almost completely in a few minutes”. Besides, in data set [3], the “inhibition of in vitro activity of HMGR” value was “potently inhibits”.
